Source: ChEMBL document CHEMBL3885861, “Open TG-GATES”

Organism: Rattus norvegicus
Assay: Open TG-GATES - Regimen: Daily Repeat
Type: toxicity, organism-based, Sprague-Dawley
Set-up: regimen Daily Repeat, gender Male, age 6 weeks
Details: in vivo, po, 200 mg/kg, route gavage, dose level High; for APTT / Bas / Eos / Fbg / Hb / Ht / Lym / MCH / MCHC / MCV / Mono / Neu / PT / Plat / RBC / Ret / WBC: tissue Blood; for KIDNEY_L / KIDNEY_R / KIDNEY_TOTAL: tissue Kidney; for LIVER: tissue Liver; for A/G / ALP / ALT / AST / BUN / CRE / Ca / Cl / DBIL / GLC / IP / K / LDH / Na / PL / RALB / TBIL / TC / TG / TP / gamma-GTP: tissue Plasma

NNC(=O)c1ccncc1 [ISONIAZID]
TERMINAL_BW (72 h, time 3 day): 211.3 g
APTT (72 h, time 3 day): 15.3 s
Bas (72 h, time 3 day): 0%
Eos (72 h, time 3 day): 0.8%
Fbg (72 h, time 3 day): 228.6 mg/dL
Hb (72 h, time 3 day): 13.5 g/dL
Ht (72 h, time 3 day): 40.4%
Lym (72 h, time 3 day): 78.4%
MCH (72 h, time 3 day): 21.5 pg
MCHC (72 h, time 3 day): 33.5%
MCV (72 h, time 3 day): 64.1 fL
Mono (72 h, time 3 day): 4.6%
Neu (72 h, time 3 day): 16%
PT (72 h, time 3 day): 12 s
Plat (72 h, time 3 day): 140.8 x10_4/uL
RBC (72 h, time 3 day): 629.8 x10_4/ul
Ret (72 h, time 3 day): 6.5%
WBC (72 h, time 3 day): 96.9 x10_2/uL
KIDNEY_L (72 h, time 3 day): 1 g
KIDNEY_R (72 h, time 3 day): 1.1 g
KIDNEY_TOTAL (72 h, time 3 day): 2.1 g
LIVER (72 h, time 3 day): 10.5 g
A/G (72 h, time 3 day): 1.9
ALP (72 h, time 3 day): 722.8 IU/L
ALT (72 h, time 3 day): 10.6 IU/L
AST (72 h, time 3 day): 44.4 IU/L
BUN (72 h, time 3 day): 19 mg/dL
CRE (72 h, time 3 day): 0.5 mg/dL
Ca (72 h, time 3 day): 10.6 mg/dL
Cl (72 h, time 3 day): 104.8 meq/L
DBIL (72 h, time 3 day): 0.006 mg/dL
GLC (72 h, time 3 day): 209.6 mg/dL
IP (72 h, time 3 day): 7.6 mg/dL
K (72 h, time 3 day): 5.1 meq/L
LDH (72 h, time 3 day): 95.8 IU/L
Na (72 h, time 3 day): 140.2 meq/L
PL (72 h, time 3 day): 140.6 mg/dL
RALB (72 h, time 3 day): 3.8 g/dL
TBIL (72 h, time 3 day): 0.3 mg/dL
TC (72 h, time 3 day): 78.6 mg/dL
TG (72 h, time 3 day): 63 mg/dL
TP (72 h, time 3 day): 5.8 g/dL
gamma-GTP (72 h, time 3 day): 1.4 IU/L
TERMINAL_BW ([…], time 7 day): 228.8 g
TERMINAL_BW ([…], time 14 day): 255.7 g
TERMINAL_BW ([…], time 28 day): 314.6 g
APTT ([…], time 7 day): 16.3 s
Bas ([…], time 7 day): 0%
Eos ([…], time 7 day): 0.6%
Fbg ([…], time 7 day): 236.4 mg/dL
Hb ([…], time 7 day): 13.6 g/dL
Ht ([…], time 7 day): 40.5%
Lym ([…], time 7 day): 81.4%
MCH ([…], time 7 day): 20 pg
MCHC ([…], time 7 day): 33.5%
MCV ([…], time 7 day): 59.7 fL
Mono ([…], time 7 day): 4.6%
Neu ([…], time 7 day): 13.2%
PT ([…], time 7 day): 12.1 s
Plat ([…], time 7 day): 138 x10_4/uL
RBC ([…], time 7 day): 678.2 x10_4/ul
Ret ([…], time 7 day): 4.7%
WBC ([…], time 7 day): 126.4 x10_2/uL
APTT ([…], time 14 day): 16.2 s
Bas ([…], time 14 day): 0%
Eos ([…], time 14 day): 1.2%
Fbg ([…], time 14 day): 212.8 mg/dL
Hb ([…], time 14 day): 13.3 g/dL
Ht ([…], time 14 day): 39.7%
Lym ([…], time 14 day): 73.4%
MCH ([…], time 14 day): 18.9 pg
MCHC ([…], time 14 day): 33.6%
MCV ([…], time 14 day): 56.2 fL
Mono ([…], time 14 day): 5.8%
Neu ([…], time 14 day): 19.8%
PT ([…], time 14 day): 12.3 s
Plat ([…], time 14 day): 134 x10_4/uL
RBC ([…], time 14 day): 707.4 x10_4/ul
Ret ([…], time 14 day): 5.4%
WBC ([…], time 14 day): 130.8 x10_2/uL
APTT ([…], time 28 day): 15.9 s
Bas ([…], time 28 day): 0%
Eos ([…], time 28 day): 0.8%
Fbg ([…], time 28 day): 226.2 mg/dL
Hb ([…], time 28 day): 13 g/dL
Ht ([…], time 28 day): 39%
Lym ([…], time 28 day): 84.2%
MCH ([…], time 28 day): 16.6 pg
MCHC ([…], time 28 day): 33.2%
MCV ([…], time 28 day): 50 fL
Mono ([…], time 28 day): 5.5%
Neu ([…], time 28 day): 9.2%
PT ([…], time 28 day): 12.2 s
Plat ([…], time 28 day): 130.1 x10_4/uL
RBC ([…], time 28 day): 781.8 x10_4/ul
Ret ([…], time 28 day): 3.8%
WBC ([…], time 28 day): 181.2 x10_2/uL
KIDNEY_L ([…], time 7 day): 1.2 g
KIDNEY_R ([…], time 7 day): 1.2 g
KIDNEY_TOTAL ([…], time 7 day): 2.3 g
KIDNEY_L ([…], time 14 day): 1.2 g
KIDNEY_R ([…], time 14 day): 1.2 g
KIDNEY_TOTAL ([…], time 14 day): 2.3 g
KIDNEY_L ([…], time 28 day): 1.4 g
KIDNEY_R ([…], time 28 day): 1.4 g
KIDNEY_TOTAL ([…], time 28 day): 2.8 g
LIVER ([…], time 7 day): 11.1 g
LIVER ([…], time 14 day): 12.1 g
LIVER ([…], time 28 day): 12.6 g
A/G ([…], time 7 day): 1.6
ALP ([…], time 7 day): 757.4 IU/L
ALT ([…], time 7 day): 8.6 IU/L
AST ([…], time 7 day): 46.8 IU/L
BUN ([…], time 7 day): 16.2 mg/dL
CRE ([…], time 7 day): 0.5 mg/dL
Ca ([…], time 7 day): 10.4 mg/dL
Cl ([…], time 7 day): 105 meq/L
DBIL ([…], time 7 day): 0.028 mg/dL
GLC ([…], time 7 day): 212.2 mg/dL
IP ([…], time 7 day): 8 mg/dL
K ([…], time 7 day): 5.1 meq/L
LDH ([…], time 7 day): 77.6 IU/L
Na ([…], time 7 day): 140.6 meq/L
PL ([…], time 7 day): 127.8 mg/dL
RALB ([…], time 7 day): 3.8 g/dL
TBIL ([…], time 7 day): 0.3 mg/dL
TC ([…], time 7 day): 64.4 mg/dL
TG ([…], time 7 day): 62.2 mg/dL
TP ([…], time 7 day): 6.1 g/dL
gamma-GTP ([…], time 7 day): 1.2 IU/L
A/G ([…], time 14 day): 1.7
ALP ([…], time 14 day): 587.6 IU/L
ALT ([…], time 14 day): 8.8 IU/L
AST ([…], time 14 day): 48.4 IU/L
BUN ([…], time 14 day): 20.4 mg/dL
CRE ([…], time 14 day): 0.6 mg/dL
Ca ([…], time 14 day): 10.3 mg/dL
Cl ([…], time 14 day): 106.8 meq/L
DBIL ([…], time 14 day): 0.004 mg/dL
GLC ([…], time 14 day): 210.8 mg/dL
IP ([…], time 14 day): 7.8 mg/dL
K ([…], time 14 day): 5.1 meq/L
LDH ([…], time 14 day): 123.4 IU/L
Na ([…], time 14 day): 139.8 meq/L
PL ([…], time 14 day): 123.2 mg/dL
RALB ([…], time 14 day): 3.7 g/dL
TBIL ([…], time 14 day): 0.3 mg/dL
TC ([…], time 14 day): 60.2 mg/dL
TG ([…], time 14 day): 61.8 mg/dL
TP ([…], time 14 day): 5.9 g/dL
gamma-GTP ([…], time 14 day): 0.2 IU/L
A/G ([…], time 28 day): 1.6
ALP ([…], time 28 day): 533 IU/L
ALT ([…], time 28 day): 6.8 IU/L
AST ([…], time 28 day): 49.8 IU/L
BUN ([…], time 28 day): 19.5 mg/dL
CRE ([…], time 28 day): 0.6 mg/dL
Ca ([…], time 28 day): 9.9 mg/dL
Cl ([…], time 28 day): 106 meq/L
DBIL ([…], time 28 day): 0.0525 mg/dL
GLC ([…], time 28 day): 212.5 mg/dL
IP ([…], time 28 day): 6.7 mg/dL
K ([…], time 28 day): 4.9 meq/L
LDH ([…], time 28 day): 81.2 IU/L
Na ([…], time 28 day): 140.8 meq/L
PL ([…], time 28 day): 108.2 mg/dL
RALB ([…], time 28 day): 3.6 g/dL
TBIL ([…], time 28 day): 0.2 mg/dL
TC ([…], time 28 day): 53.8 mg/dL
TG ([…], time 28 day): 41.8 mg/dL
TP ([…], time 28 day): 5.8 g/dL
gamma-GTP ([…], time 28 day): 1.5 IU/L
